How the values were obtained:
[1] = molecular target: T1, wild-type nAChR α7 receptors (Homo sapiens, UniProt P36544); assay: Positive modulation of nAChR α7 receptors expressed in Xenopus laevis oocytes, two-electrode voltage clamp; assay type: cell-based
T1 construct: expressed in transfected cells; host or cells: Xenopus laevis oocytes
Description: In this example the positive modulation of wild-type nAChR α7 receptors by Compound 3 (i.e. 4-Hydroxy-3-methoxy-benzoic acid [3-methyl-4-oxo-4H-naphthalen-(1E)-ylidene]-hydrazide; FIGS. 1A and 1B) was determined using nAChR α7 receptors heterologously expressed in Xenopus laevis oocytes.
The electrical current through the nAChR α7 channel was measured using conventional two-electrode voltage clamp and nAChR α7 currents were activated by applying pulses of agonist-containing solution onto the nAChR α7 expressing oocyte.
In brief, the oocytes were placed in a recording chambers and continuously super-fused with an Oocyte Ringer (OR) solution containing 90 mM NaCl, 2.5 mM KCl, 2.5 mM CaCl2, 1 mM MgCl2 and 5 mM HEPES (pH adjusted to 7.4). The oocytes were clamped at −60 mV and currents were induced by applying 20 s pulses of 100 μM acetylcholine dissolved in OR. The intervals between the acetylcholine applications were 5 minutes, during which the oocytes were washed with OR. The first three applications were control applications to insure a constant response level of 100 μM acetylcholine.
The positive modulation in the presence of Compound 3 was calculated as (test-control)/control*100% and the concentration response curve for this positive modulation was fitted to the sigmoidal logistic equation: I=Imax/(1+(EC50/[compound])n), where Imax represents the maximal modulation of the control response, EC50 is the concentration causing a half maximal response, and n is the slope coefficient.

T1 sequence (P36544 23-502): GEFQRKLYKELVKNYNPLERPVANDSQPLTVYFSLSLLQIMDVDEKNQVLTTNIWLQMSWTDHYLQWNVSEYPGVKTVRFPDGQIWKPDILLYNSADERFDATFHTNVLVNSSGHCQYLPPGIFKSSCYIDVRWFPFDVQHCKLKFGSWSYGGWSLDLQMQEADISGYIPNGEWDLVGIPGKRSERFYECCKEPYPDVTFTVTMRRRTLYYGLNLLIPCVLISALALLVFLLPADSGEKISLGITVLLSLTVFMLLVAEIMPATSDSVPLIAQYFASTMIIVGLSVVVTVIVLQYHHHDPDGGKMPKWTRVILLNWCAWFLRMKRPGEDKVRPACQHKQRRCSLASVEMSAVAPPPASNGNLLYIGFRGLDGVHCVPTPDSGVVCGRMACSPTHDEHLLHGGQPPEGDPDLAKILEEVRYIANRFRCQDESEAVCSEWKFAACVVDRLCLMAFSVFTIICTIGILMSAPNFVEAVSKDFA

Structure (SMILES) | melting point | effect on the acetylcholine-induced current amplitude ([1]; 0.01-31.6 μM applied 30 s before and during 100 μM acetylcholine) | Imax (maximal modulation of the control response) ([1]; Xenopus laevis oocytes clamped at −60 mV, 100 μM acetylcholine, (test-control)/control*100%, fitted maximum) | EC50 ([1]; Xenopus laevis oocytes clamped at −60 mV, currents induced by 100 μM acetylcholine, compound 0.01-31.6 μM applied 30 s before and during acetylcholine, read-out: EC50 (concentration causing a half maximal response) of positive modulation)
COc1ccc(C(=O)N/N=C2\C=C(C)C(=O)c3ccccc32)cc1 [Compound 2, 4-Methoxy-benzoic acid [3-methyl-4-oxo-4H-naphthalen-(1E)-ylidene]-hydrazide] | 252.9 to 253.4 °C | – | – | –
COc1cc(C(=O)N/N=C2\C=C(C)C(=O)c3ccccc32)ccc1O [Compound 3, 4-Hydroxy-3-methoxy-benzoic acid [3-methyl-4-oxo-4H-naphthalen-(1E)-ylidene]-hydrazide] | 254.8 to 255.6 °C | robust increase | 98% | 490 nM
CC1=C/C(=N\NC(=O)c2ccc3[nH]ccc3c2)c2ccccc2C1=O [Compound 4, 1H-Indole-5-carboxylic acid [3-methyl-4-oxo-4H-naphthalen-(1E)-ylidene]-hydrazide] | 251.9 to 252.9 °C | – | – | –
CC(=O)Nc1ccc(C(=O)N/N=C2\C=C(C)C(=O)c3ccccc32)cc1 [Compound 5, N-{-4-[3-Methyl-4-oxo-4H-naphthalen-(1E)-ylidene-hydrazinocarbonyl]-phenyl}-acetamide] | 280.5 to 280.8 °C | – | – | –

Second part, the compound after the results:

melting point | effect on the acetylcholine-induced current amplitude ([1]; 0.01-31.6 μM applied 30 s before and during 100 μM acetylcholine) | Imax (maximal modulation of the control response) ([1]; Xenopus laevis oocytes clamped at −60 mV, 100 μM acetylcholine, (test-control)/control*100%, fitted maximum) | EC50 ([1]; Xenopus laevis oocytes clamped at −60 mV, currents induced by 100 μM acetylcholine, compound 0.01-31.6 μM applied 30 s before and during acetylcholine, read-out: EC50 (concentration causing a half maximal response) of positive modulation) | Structure (SMILES)
274.3 to 275.7 °C | – | – | – | CC1=C/C(=N\NC(=O)c2ccc(O)cc2)c2ccccc2C1=O [Compound 1, 4-Hydroxy-benzoic acid [3-methyl-4-oxo-4H-naphthalen-(1E)-ylidene]-hydrazide]
290.3 to 292.7 °C | – | – | – | CC1=C/C(=N/NC(=O)c2ccc(C#N)cc2)c2ccccc2C1=O [Compound 6, 4-Cyano-benzoic acid [3-methyl-4-oxo-4H-naphthalen-(1Z)-ylidene]-hydrazide]
